{
  "source": "patent US7335636B2",
  "about": "“SPRR1A and axonal regeneration” (Yale University, priority 2001, dated 2008)",
  "molecules": {"B1": {"name": "SPRR1A: Recombinant mouse small proline-rich repeat protein SPRR1A purified from transformed Escherichia coli (protein, listed as Mus musculus)", "chain": "MSSHQQKQPCTVPPQLHQQQVKQPCQPPPQEPCAPKTKDPCHPVPEPCNPKGPEPCHPKAPEPCHPKAPEPCNPKVPEPCQPKVPEPCQPKVPEPCNPKVPEPCQPKAPEPCHPKAPEPCHPVVPEPCPSTVTPSPYQQKTKQK"}},
  "key": {"E8 chick DRGs": {"tested_on": "E8 chick DRGs", "assay": "Neurite outgrowth of E8 chick DRGs triturated with SPRR1A-derived peptide", "format": "cell-based", "details": "trituration, 6 hours after plating on laminin", "from_the_text": "Herpes simplex virus preparation and protein trituration. The coding region of mouse SPRR1A was amplified by PCR with an in-frame C-terminal Myc epitope and ligated to the pHSVprPUC vector. Similarly, the S100C coding region with a Myc tag was ligated to pHSVprPUC vector. The resulting plasmids were transfected into 2-2 cells with Fugene and then superinfected with 5 dl 1.2 herpes simplex virus (HSV) helper virus 1 d later as described previously (Nakamura et al., 1998; Takahashi et al., 1998, 1999). Recombinant virus was amplified through three passages and stored at −80° C. Freshly dissociated DRG neurons were allowed to adhere to cultured dishes for 30 min and then incubated with HSV preparations encoding for SPRR1A, S100C, enhanced green fluorescent protein (EGFP), or Nogo receptor. […]\n(§1) DRG cultures and neurite outgrowth analysis. […] After 6-36 hr, cells were fixed and stained, and neurite outgrowth was quantified. Images of each culture were captured with Olympix Software and analyzed with Scion Image (Jin and Strittmatter, 1997; GrandPre et al., 2000; Fournier et al., 2001). The total neurite length for each neuron was determined for 50-100 neurons in each experiment. […]\nAn SPRR1A-derived peptide acts as an agent to promote axon regeneration. […] This 24 amino acid peptide was triturated into E8 chick DRGs and neurite length was measured 6 hours after the cells were plated on laminin (FIG. 8). […]"}, "SPRR1A": {"tested_on": "SPRR1A", "assay": "Immunoblot for SPRR1A protein in oligonucleotide-treated adult mouse DRG cultures", "format": "cell-based", "details": "preconditioned adult DRG neurons, 36 hr culture with oligonucleotide 10-50 μM"}, "adult mouse DRG neurons": {"tested_on": "adult mouse DRG neurons", "assay": "Antisense experiment: neurite outgrowth and branching of adult mouse DRG cultures", "format": "cell-based", "experimental": "DRG cultures and neurite outgrowth analysis. Embryonic day 7 (E7) chick, embryonic day 13 chick, or adult mouse DRGs were dissected and dissociated with 0.25% trypsin for 15 min at 37° C. For adult mouse DRG preparations, preincubation with 1 mg/ml collagenase was included. For preconditioned adult mouse DRG cultures, sciatic nerve lesions were performed 4 d before death and L3-L5 DRG dissection. Dissociated cells were preplated on tissue culture-treated plastic dishes for 1 hr at 37° C. Non-adherent cells (predominantly neurons) were collected and plated on plastic chamber slides coated with poly-L-lysine (100 μg)/laminin (10 μg/ml). In some cases, the substrate was coated with 45 ng/mm^2 bovine CNS myelin or 34 ng/mm^2 purified GST-Nogo-66 protein as described previously (Jin and Strittmatter, 1997; GrandPre et al., 2000; Fournier et al., 2001). After 6-36 hr, cells were fixed and stained, and neurite outgrowth was quantified. Images of each culture were captured with Olympix Software and analyzed with Scion Image (Jin and Strittmatter, 1997; GrandPre et al., 2000; Fournier et al., 2001). The total neurite length for each neuron was determined for 50-100 neurons in each experiment. The total number of branch points was divided by the total neurite length to obtain a branching index.\nAntisense experiment. Phosphorothioate sense and antisense oligonucleotides spanning the translation initiation site (italic type) of the mouse sprr1a sequence (sense, p-thio-[…] (SEQ ID NO:4); antisense, p-thio-[…] (SEQ ID NO:5)) were generated. Adult mouse DRG cultures were incubated with purified oligonucleotides at concentrations of 10-50 μM. Immunoblot and immunohistological analysis was performed after 36 hr of culture."}, "F-actin": {"tested_on": "F-actin", "assay": "Actin cosedimentation and immunoprecipitation assays", "format": "binding", "details": "in the presence or absence of S100C protein", "experimental": "Actin cosedimentation assay. The actin cosedimentation protocol has been described previously (Gonzalez et al., 1998; Sakaguchi et al., 2000). Purified monomeric actin (G-actin, 25 μM; Cytoskeleton, Denver, Colo.) was incubated with recombinant SPRR1A (200 nM), GST-S100C (2 μM), or GST (2 μM) in an actin polymerization buffer (5 mM Tris, pH 8.0, 1.0 mM CaCl2, 1.0 mM DTT, 0.2 mM ATP, 100 mM KCl, 2.0 mM MgCl2) at room temperature for 60 min. Polymerized actin was sedimented by centrifugation at […] for 1 hr. Equal volumes of the particulate and supernatant fractions were analyzed by SDS-PAGE and immunoblotting."}, "chick E7 DRG neurons": {"tested_on": "chick E7 DRG neurons", "assay": "Neurite outgrowth of embryonic chick DRG neurons after HSV infection or protein trituration", "format": "cell-based", "from_the_text": "Herpes simplex virus preparation and protein trituration. The coding region of mouse SPRR1A was amplified by PCR with an in-frame C-terminal Myc epitope and ligated to the pHSVprPUC vector. Similarly, the S100C coding region with a Myc tag was ligated to pHSVprPUC vector. The resulting plasmids were transfected into 2-2 cells with Fugene and then superinfected with 5 dl 1.2 herpes simplex virus (HSV) helper virus 1 d later as described previously (Nakamura et al., 1998; Takahashi et al., 1998, 1999). Recombinant virus was amplified through three passages and stored at −80° C. Freshly dissociated DRG neurons were allowed to adhere to cultured dishes for 30 min and then incubated with HSV preparations encoding for SPRR1A, S100C, enhanced green fluorescent protein (EGFP), or Nogo receptor. Recombinant SPRR1A and S100C protein were triturated into dissociated DRGs by repetitive pipetting in the presence of 1 mg/ml of protein as described previously (Jin and Strittmatter, 1997).\nas §1"}},
  "note": "“Also recorded” adds a separate entry of the source.",
  "data": [
    {"molecule": "acetyl-HPKAPEPCNPKVPEPCQPKVPEPC-amide (Ac-HPKAPEPCNPKVPEPCQPKVPEPC-NH2; cysteine pairing not given here; listed as Mus musculus) [SEQ ID NO:3, 24 amino acid peptide consisting of three XPKXPEPC octapeptide repeats of SPRR1A]", "values": [
      {"measurement": "enhancement of average neurite outgrowth", "setting": "E8 chick DRGs; 5-25 μM peptide", "value": 1.7, "unit": "fold"},
      {"measurement": "enhancement of neurite outgrowth", "setting": "E8 chick DRGs; 100-500 μM peptide", "value": 2.5, "unit": "fold"}
    ]},
    {"molecule": "p-thio-GTGGGAACTCATGGTTAGAT (all phosphorothioate, sugars by position and methylation of C not given here) [antisense oligonucleotide]", "values": [
      {"measurement": "SPRR1A protein level (immunoblot, immunohistochemistry)", "setting": "SPRR1A", "value": "significantly and selectively decreased; also recorded: decreases to nearly basal levels"},
      {"measurement": "neurite length, preconditioned neurons", "setting": "adult mouse DRG neurons; adult preconditioned DRG neurons, 36 hr, vs sense-treated", "value": "significant decrease in neurite length"},
      {"measurement": "axonal branching index, preconditioned neurons", "setting": "adult mouse DRG neurons; adult preconditioned DRG neurons, vs sense-treated", "value": "marked increase"},
      {"measurement": "effect on naive neurons (do not express SPRR1A)", "setting": "adult mouse DRG neurons; naive adult mouse DRG neurons", "value": "lack of effect"}
    ]},
    {"molecule": "B1", "values": [
      {"measurement": "direct physical association with F-actin", "setting": "F-actin", "value": "no direct physical association"},
      {"measurement": "neurite outgrowth, protein added to the culture medium without trituration", "setting": "chick E7 DRG neurons; no trituration", "value": "does not alter outgrowth"},
      {"measurement": "neurite outgrowth in neurons triturated with purified protein", "setting": "chick E7 DRG neurons; recombinant protein triturated into DRG neurons, 1 mg/ml", "value": "increase in neurite outgrowth"}
    ]}
  ]
}
